Tests used:
CO in intact RBL-1 cells = biological target: T1, CO in intact RBL-1 cells (Rattus norvegicus, UniProt Q63921); test: Procedure III: inhibition of CO in intact RBL-1 cells; type: cell-based
T1 construct: 5-LO and CO in intact RBL-1 cells; endogenous in cells; host or cells: RBL-1 (rat basophilic leukemia cells), intact
T1 sequence (Q63921 27-602): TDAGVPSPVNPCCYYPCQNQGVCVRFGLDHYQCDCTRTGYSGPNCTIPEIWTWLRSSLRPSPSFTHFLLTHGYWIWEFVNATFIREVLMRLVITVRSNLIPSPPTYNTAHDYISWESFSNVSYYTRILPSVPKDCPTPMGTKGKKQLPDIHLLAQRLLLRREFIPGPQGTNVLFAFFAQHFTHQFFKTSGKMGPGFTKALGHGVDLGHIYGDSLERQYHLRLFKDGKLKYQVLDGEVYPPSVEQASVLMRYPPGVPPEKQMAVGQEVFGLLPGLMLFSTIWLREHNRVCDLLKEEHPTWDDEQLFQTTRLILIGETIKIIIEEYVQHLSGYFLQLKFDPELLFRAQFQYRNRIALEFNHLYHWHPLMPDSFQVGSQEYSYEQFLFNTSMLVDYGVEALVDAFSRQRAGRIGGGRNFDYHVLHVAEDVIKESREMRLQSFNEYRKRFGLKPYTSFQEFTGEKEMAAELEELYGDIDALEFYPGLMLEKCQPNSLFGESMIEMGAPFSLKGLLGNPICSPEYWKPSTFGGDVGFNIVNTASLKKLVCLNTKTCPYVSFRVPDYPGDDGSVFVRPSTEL
Protocol: (§1) The ability to inhibit 5-LO and CO in intact RBL-1 cells was also evaluated. RBL-1 cells were maintained in culture in minimal essential medium (Bio*Whittaker, Walkersville, Md.), containing 12.5% fetal calf serum, 10 mg/mL streptomycin, 10 I.U./mL penicillin G, […] gentamycin and 2 mM L-glutamine (Bio*Whittaker, Walkersville, Md.). Cells were collected by centrifugation, washed once in HBSS, and resuspended at a concentration of 1×10^5 cells/mL. Cells were incubated in the presence of vehicle or drug then centrifuged at 800×g for 10 minutes at 4° C. The supernatant was removed by aspiration and the cells were resuspended in 0.5 mL of HBSS. The reaction was started by the addition of 20 μg/mL of calcium ionophore A-23187 (mixed calcium and magnesium salts, Calbiochem, La Jolla, Calif.) and allowed to proceed for 15 minutes, then stopped by plunging the tubes into a slush ice bath. The conversion of AA to 5-LO products was initiated by the addition of 10 μL (50 uCi) of 1-^14 C-AA. Products were isolated by acidification and extraction, followed by thin layer chromatography analysis as described above. Radioactive areas corresponding to authentic 5-LO and CO products were quantitated by the Bioscan 2000 Imaging System.
(§2) In the following tables, the superscripts indicate the number of experiments and, unless otherwise stated, the dose at which % inhibition is reported is 3 MPK.

[1] = biological target: T2, 5-LO in intact RBL-1 cells (Rattus norvegicus, UniProt P12527); test: Procedure III: inhibition of 5-LO in intact RBL-1 cells; type: cell-based
T2 construct: 5-LO and CO in intact RBL-1 cells; endogenous in cells; host or cells: RBL-1 (rat basophilic leukemia cells), intact
T2 sequence (P12527 1-673): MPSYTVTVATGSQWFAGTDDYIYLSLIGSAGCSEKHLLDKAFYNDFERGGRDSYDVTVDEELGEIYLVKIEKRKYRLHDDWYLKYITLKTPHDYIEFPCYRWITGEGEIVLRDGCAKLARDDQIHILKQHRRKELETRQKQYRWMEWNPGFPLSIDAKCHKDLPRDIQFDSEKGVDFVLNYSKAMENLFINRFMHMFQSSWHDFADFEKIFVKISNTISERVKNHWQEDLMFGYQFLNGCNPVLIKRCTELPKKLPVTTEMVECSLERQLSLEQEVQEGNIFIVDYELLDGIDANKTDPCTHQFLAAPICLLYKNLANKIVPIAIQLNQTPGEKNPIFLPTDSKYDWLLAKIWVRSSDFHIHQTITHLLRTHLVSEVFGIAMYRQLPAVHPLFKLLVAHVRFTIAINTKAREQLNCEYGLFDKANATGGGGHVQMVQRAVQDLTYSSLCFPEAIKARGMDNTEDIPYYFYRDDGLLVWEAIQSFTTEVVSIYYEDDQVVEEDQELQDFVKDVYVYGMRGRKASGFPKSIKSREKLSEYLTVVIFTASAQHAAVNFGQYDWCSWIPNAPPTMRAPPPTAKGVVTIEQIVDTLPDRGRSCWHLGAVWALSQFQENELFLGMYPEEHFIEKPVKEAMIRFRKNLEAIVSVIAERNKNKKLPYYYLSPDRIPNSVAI
Protocol: as §1, §2

[2] = biological target: T3, RBL-1 Cell 5-Lipoxygenase (Rattus norvegicus, UniProt P12527); test: Procedure II: 5-lipoxygenase inhibition in disrupted RBL-1 cells (supernatant as enzyme source); type: biochemical; details: for IC50: read-out: IC50 5-LO (Procedure II)
T3 construct: the supernatant was saved as the source of enzymes; endogenous in cells; host or cells: RBL-1 (rat basophilic leukemia cells), 10,000×g supernatant of homogenate
T3 sequence (P12527 1-673): T2 sequence (P12527 1-673)
Protocol: RBL-1 Cell 5-Lipoxygenase and Cyclooxygenase
Rat basophilic leukemia cells (RBL-1; 5×10^7 viable cells/mL) were disrupted by homogenization on ice (four 20 sec bursts) with a Brinkman polytron. Complete cell breakage was verified microscopically. The homogenate was then centrifuged at 10,000×g for 48 minutes at 4° C. The pellet was discarded and the supernatant was saved as the source of enzymes. The supernatant was pre-incubated for five minutes at 37° C. in the presence of 2 mM of CaCl2 and compound or vehicle (1% DMSO). The conversion of AA into 5-LO products was initiated by adding 10 μL (50 μCi) of 1-^14 C-AA to each tube and incubated at 37° C. for 20 minutes. The reaction was stopped by adjusting the pH of each sample to 3 to 3.5 with 2M formic acid. Samples were extracted with three volumes of chloroform to isolate the products of 5-LO formed during the reaction. Fractions were dried under nitrogen, then resuspended in 40 μL of chloroform and spotted onto silica gel HL plates. The plates were developed in A-9 solvent. The dried plates were analyzed using a Bioscan Imaging TLC scanner to determine the percentage of radiolabelled AA converted to 5-HETE in each sample.
as §2

| Compound | IC50 (CO in intact RBL-1 cells) [nM] | IC50 [1] [nM] | % INHIBITION 5-LO (Procedure II) [2] [%] | IC50 [2] [nM] |
| --- | --- | --- | --- | --- |
| COc1ccc(-n2nc(COC(=O)N(O)C(C)C)cc2-c2ccc(Cl)cc2)cc1 [1-C] | 540 | 10600 | 88 | 1020 |
| COc1ccc(-n2nc(COC(=O)N(O)C(C)C)c(Br)c2-c2ccc(Cl)cc2)cc1 [1-F] | 1900 | 3600 | 63 | 120 |

Now from value to compound:

| IC50 (CO in intact RBL-1 cells) [nM] | IC50 [1] [nM] | % INHIBITION 5-LO (Procedure II) [2] [%] | IC50 [2] [nM] | Compound |
| --- | --- | --- | --- | --- |
| 2400 | 1600 | 71 | 140 | COc1ccc(-n2nc(CCOC(=O)N(O)C(C)C)c(Br)c2-c2ccc(Cl)cc2)cc1 [2-F] |
| 2500 | 17500 | 30 | 890 | COc1ccc(-n2nc(COC(=O)NO)c(Cl)c2-c2ccc(C)cc2)cc1 [1-P] |
| 150 | 1800 | 88 | 50 | COc1ccc(-n2nc(COC(=O)N(C)O)c(Cl)c2-c2ccc(C)cc2)cc1 [1-Q] |
| 1800 | 1200 | 75 | 90 | COc1ccc(-n2nc(CCOC(=O)N(C)O)c(Br)c2-c2ccc(C)cc2)cc1 [2-L] |

— US5387602A, “1.5-diphenyl-3-(N-hydroxycarbamoyloxyalkyl)pyrazoles” (Ortho Pharmaceutical Corporation, priority 1993, dated 1995)
